From ChEMBL document CHEMBL3526083, “Prediction of relative in vivo metabolite exposure from in vitro data using two model drugs: dextromethorphan and omeprazole” (Drug Metab Dispos, 2012)

Assays:
Liver microsome [1] = assay: Drug metabolism in human liver microsomes assessed as 3-hydroxymorphinan formation measured as intrinsic unbound clearance; format: ADME
Liver microsome [2] = assay: Drug metabolism in human liver microsomes assessed as 3-hydroxymorphinan formation measured per mg of microsomal protein; format: ADME
Liver microsome [3] = assay: Drug metabolism in human liver microsomes assessed as 3-hydroxymorphinan formation measured as microsomal fraction unbound; format: ADME
[4] = target: T1, UDP-glucuronosyltransferase 1A4 (Homo sapiens, UniProt P22310); assay: Drug metabolism assessed as recombinat UGT1A4 (unknown origin) -mediated dextrophan-O-glucuronide formation; format: ADME
T1 sequence (P22310 whole entry): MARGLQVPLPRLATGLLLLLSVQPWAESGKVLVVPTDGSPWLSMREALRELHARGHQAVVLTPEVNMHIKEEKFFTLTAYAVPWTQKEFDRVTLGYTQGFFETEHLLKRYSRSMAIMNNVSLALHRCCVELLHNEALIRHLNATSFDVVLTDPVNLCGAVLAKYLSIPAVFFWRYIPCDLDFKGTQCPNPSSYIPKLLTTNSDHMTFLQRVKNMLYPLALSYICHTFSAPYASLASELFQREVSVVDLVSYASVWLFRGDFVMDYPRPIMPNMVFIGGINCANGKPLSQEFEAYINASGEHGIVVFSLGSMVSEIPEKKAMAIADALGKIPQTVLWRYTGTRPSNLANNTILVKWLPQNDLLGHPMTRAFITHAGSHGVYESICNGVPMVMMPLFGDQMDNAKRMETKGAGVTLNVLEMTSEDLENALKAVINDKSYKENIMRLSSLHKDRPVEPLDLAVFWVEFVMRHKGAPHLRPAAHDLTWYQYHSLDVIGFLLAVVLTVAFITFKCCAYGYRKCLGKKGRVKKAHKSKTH

Liver microsome [5] = assay: Drug metabolism in human liver microsomes assessed as 3-hydroxymorphinan formation; format: ADME
Liver microsome [6] = assay: Drug metabolism in human liver microsomes assessed as dextrophan-O-glucuronide formation measured as microsomal fraction unbound; format: ADME
[7] = target: T2, UDP-glucuronosyltransferase 1A3 (Homo sapiens, UniProt P35503); assay: Drug metabolism assessed as recombinat UGT1A3 (unknown origin) -mediated dextrophan-O-glucuronide formation; format: ADME
T2 sequence (P35503 whole entry): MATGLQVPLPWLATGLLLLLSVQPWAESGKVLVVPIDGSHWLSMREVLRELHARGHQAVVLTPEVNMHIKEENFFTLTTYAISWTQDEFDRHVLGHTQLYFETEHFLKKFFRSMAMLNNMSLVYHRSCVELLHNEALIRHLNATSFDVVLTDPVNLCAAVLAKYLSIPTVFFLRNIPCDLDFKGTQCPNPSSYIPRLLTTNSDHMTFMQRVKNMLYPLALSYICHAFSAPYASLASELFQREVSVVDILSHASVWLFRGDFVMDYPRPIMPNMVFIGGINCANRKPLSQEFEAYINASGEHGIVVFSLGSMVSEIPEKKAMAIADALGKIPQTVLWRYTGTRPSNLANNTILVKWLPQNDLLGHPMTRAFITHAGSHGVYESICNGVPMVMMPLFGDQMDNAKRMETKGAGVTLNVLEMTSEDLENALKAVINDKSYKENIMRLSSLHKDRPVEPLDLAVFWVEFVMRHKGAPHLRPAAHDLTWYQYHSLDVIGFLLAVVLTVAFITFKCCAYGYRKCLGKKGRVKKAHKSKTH

[8] = target: T3, UDP-glucuronosyltransferase 2B15 (Homo sapiens, UniProt P54855); assay: Drug metabolism assessed as recombinat UGT2B15 (unknown origin) -mediated dextrophan-O-glucuronide formation; format: ADME
T3 sequence (P54855 whole entry): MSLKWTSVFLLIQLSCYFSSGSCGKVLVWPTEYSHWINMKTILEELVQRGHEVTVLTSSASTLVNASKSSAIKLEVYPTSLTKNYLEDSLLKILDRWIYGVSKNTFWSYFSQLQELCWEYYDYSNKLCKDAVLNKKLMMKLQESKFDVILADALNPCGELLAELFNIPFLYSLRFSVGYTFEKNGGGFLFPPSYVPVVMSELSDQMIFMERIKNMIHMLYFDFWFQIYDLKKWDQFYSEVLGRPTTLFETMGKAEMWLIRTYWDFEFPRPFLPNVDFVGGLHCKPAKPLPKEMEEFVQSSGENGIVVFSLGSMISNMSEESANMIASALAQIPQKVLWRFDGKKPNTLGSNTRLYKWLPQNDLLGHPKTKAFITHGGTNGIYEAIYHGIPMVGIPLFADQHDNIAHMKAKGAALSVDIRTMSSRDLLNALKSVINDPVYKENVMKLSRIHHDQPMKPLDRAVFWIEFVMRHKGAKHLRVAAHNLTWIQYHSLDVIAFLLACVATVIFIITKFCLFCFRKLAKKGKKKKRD

Liver microsome [9] = assay: Drug metabolism in human liver microsomes assessed as dextrophan-O-glucuronide formation measured per mg of microsomal protein; format: ADME
Liver microsome [10] = assay: Drug metabolism in human liver microsomes assessed as 3-hydroxymorphinan formation measured as plasma fraction unbound; format: ADME, cell-free
Liver microsome [11] = assay: Drug metabolism in human liver microsomes assessed as dextrophan-O-glucuronide formation measured per mg of microsomal protein in presence of 2% BSA; format: ADME

## CN1CC[C@@]23CCCC[C@@H]2[C@@H]1Cc1ccc(O)cc13 [DEXTRORPHAN]
Liver microsome [1]
  CL free: 0.95 µL/min/mg
Liver microsome [2]
  Vmax: 0.8 nmol/min
Liver microsome [3]
  Fu: 1
[4]
  Drug metabolism: metabolite_not_detected
Liver microsome [5]
  Km: 910 µM
Liver microsome [6]
  Fu: 1
[7]
  Drug metabolism: metabolite_not_detected
[8]
  Drug metabolism: metabolite_detected
Liver microsome [9]
  Vmax: 2 nmol/min
Liver microsome [10]
  Fu: 0.55
Liver microsome [11]
  Vmax: 2.3 nmol/min
